This is an account of results in patent publication EP0036436A1, “Methyl 11alpha,15R-dihydroxy-16,18-methano-16-methyl-9-oxoprost-13E-en-1-oate, a process for its production and composition containing it” (MILES LABORATORIES, INC., priority 1980, dated 1981).

Several values for one entry are separate records, joined by “and”; a condition that tells them apart may be missing. Identical values can stand only once.

One data set deals with tracheobronchial tract. The data set can be described thus: irritancy to the tracheobronchial tract: 10 minute aerosol challenge in conscious cats. Type of data set: in vivo. Particulars: for Cough / %ΔRR = percent change in respiratory rate: conscious cats, 10 minute aerosol challenge; for times less potent an irritant than PGE1: computer program of relative potencies on the data of Tables I and II, PGE1 as standard. As for the experimental part:
PGE1 and the test compounds were dissolved in absolute ethanol to give stock solutions of 10 mg/ml. These stock solutions and an ethanol vehicle were diluted using isotonic saline adjusted with phosphate buffer to pH 7.2.
Specific pathogen free cats (Category III) of either sex from the Laboratory Animals Centre were used. Conscious cats (2-4 kg) were restrained in an adjustable Perspex box with their heads protruding into a separate Perspex chamber with a seal around the neck. The respiratory pattern and rate of each cat was recorded via a Fleisch head pneumotachograph protruding into the top of the chamber. Sound was recorded by a microphone also protruding into the chamber. An aerosol of 1-8µm particle size was generated by a Monaghan 670 Ultrasonic nebulizer and passed to the cat's face via an opening in the front of the chamber. Each cat was challenged initially for 10 minutes with an aerosol of isotonic saline adjusted with phosphate buffer to pH 7.2 plus the appropriate concentration of ethanol. This control challenge was followed by a 10 minute aerosol challenge of the test compound of PGE1 in the appropriate vehicle. This 10 minute challenge period is much greater than the brief period of inhalation likely to be used in man, but it does produce a larger number of coughs and enables us to determine the potency of the analogue relative to PGE1 in producing other unwanted side effects.
Seven days were left between successive challenges to avoid the development of tolerance. Both drugs were tested in 5 cats using a wide range of concentrations of aerosol stock solutions. Each cat was observed during and up to 24 hours after the experiment for other side effects, e.g., sedation, diarrhea, and salivation.

Another data set deals with human bronchial muscle. Nature of the data set: relaxation of the human bronchial muscle relative to PGE1. Type of data set: cell-based. The settings on record: for relative potency to PGE1: relaxation of human bronchial muscle, PGE1 as standard. The protocol:
The compounds prepared as described in Examples I and II, i.e., TR-4681 and TR-4690, were tested to determine their activity in the relaxation of the human bronchial muscle relative to PGE1. […] If potency as a bronchodilator were the only criterion upon which a drug of this type were judged, TR-4690 would be preferred. […] This screen and the results observed in using it to test TR-4681 and TR-4690 are as follows: […]

For `CCCCC[C@H](O)/C=C/[C@H]1[C@H](O)CC(=O)[C@@H]1CCCCCCC(=O)O` [PGE1, prostaglandin E1], the Cough in the data set on tracheobronchial tract (Conc 100.0 µg/ml) was 33 and 31; with tracheobronchial tract (Conc 500.0 µg/ml), 58 and 63.

With `CCC1CC(C)([C@H](O)/C=C/[C@H]2[C@H](O)CC(=O)[C@@H]2CCCCCCC(=O)OC)C1` (stereo partly drawn) [TR-4681, Methyl 11α,15R-dihydroxy-16,18-methano-16-methyl-9-oxoprost-13E-en-l-oate], the “relative potency to PGE1” value in the data set with human bronchial muscle is 1.33. In addition, in the data set with tracheobronchial tract (compared with TR-4690), the “times less potent an irritant to the tracheobronchial tract than TR-4690” value is reported as “twenty-five times less potent”. In the data set with tracheobronchial tract, the “times less potent an irritant than PGE1” value is reported as “approximately 50 times”. The “%ΔRR = percent change in respiratory rate” value with tracheobronchial tract (Conc 1.0 µg/ml) is 0%; in the data set with tracheobronchial tract (Conc 10.0 µg/ml), “+3%”; with tracheobronchial tract (Conc 50.0 µg/ml), “+41%”; in the data set on tracheobronchial tract (Conc 100.0 µg/ml), “+41%”; with tracheobronchial tract (Conc 500.0 µg/ml), “+67%”. Also, the Cough with tracheobronchial tract (Conc 1.0 µg/ml) was determined as 0; in the data set with tracheobronchial tract (Conc 10.0 µg/ml), 0; with tracheobronchial tract (Conc 50.0 µg/ml) it was 16; in the data set on tracheobronchial tract (Conc 100.0 µg/ml) it was 11; with tracheobronchial tract (Conc 500.0 µg/ml), 14.

With `COC(=O)CCCCCC[C@H]1C(=O)C[C@@H](O)[C@@H]1/C=C/[C@@H](O)C1(C)CCC1` [TR-4690, Methyl 16,19-cyclo-11α,15R-dihydroxy-16-methyl-20-nor-9-oxoprost-13E-en-l-oate], the “relative potency to PGE1” value in the data set on human bronchial muscle was 3.9. In addition, the “times more potent than TR-4681 as a bronchodilator” value in the data set on human bronchial muscle (relaxing human bronchial muscle, compared with TR-4681) is reported as “approximately 3 times”. Besides, in the data set on tracheobronchial tract (compared with TR-4681), the “times more potent an irritant than TR-4681” value is on record as “approximately 25 times”. Besides, the “times less potent an irritant than PGE1” value in the data set with tracheobronchial tract is reported as “approximately 2 times”. For the same compound, the “%ΔRR = percent change in respiratory rate” value with tracheobronchial tract (Conc 1.0 µg/ml) is on record as “+5%”; in the data set on tracheobronchial tract (Conc 10.0 µg/ml), “+11%”; in the data set with tracheobronchial tract (Conc 50.0 µg/ml), “+26%”; in the data set on tracheobronchial tract (Conc 100.0 µg/ml) it was “+21%”; in the data set on tracheobronchial tract (Conc 500.0 µg/ml) it was “+39%”. In addition, the Cough with tracheobronchial tract (Conc 1.0 µg/ml) came to 6; with tracheobronchial tract (Conc 10.0 µg/ml), 5; in the data set on tracheobronchial tract (Conc 50.0 µg/ml), 15; in the data set on tracheobronchial tract (Conc 100.0 µg/ml) it was 1; with tracheobronchial tract (Conc 500.0 µg/ml), 33.
